Results as given in patent US12728119B2, “Pharmaceutical composition for preventing or treating cancer comprising 3-ketoacyl CoA thiolase inhibitor and carnitine acylcarnitine carrier inhibitor” (NATIONAL CANCER CENTER, priority 2020, dated 2026).

What was measured:
Type in all cases: cell-based
A375 melanoma cell line = assay: SRB analysis 3; conditions: 48 hours
Method: (§1) Through SRB analysis (n=3), the effect of triple combination treatment of a CAC inhibitor (KN510: omeprazole), ACAA inhibitor (KN713: trimetazidine) and other anticancer drug on cell growth in the cancer cells was analyzed. (see Table 11).
(§2) The SRB assay was performed as follows: each cell line (100 μl) was seeded into 96-well microtiter plates at densities ranging from 5,000 to 40,000 cells/well depending on the doubling time of each cell line. After 24 hours, drug (100 μl per well) was added to each well and the culture was incubated at 37° C. for 48 hours. Cells were then fixed in 50% TCA (50 μl per well) and plates were incubated at 4° C. for a minimum of 1 hour or a maximum of 3 hours. After that, the liquid was removed from the plate, then rinsed 5 times with water and dried for approximately 12-24 hours at room temperature (RT). After the fixed cells were stained with 0.4% SRB (100 μl per well) for 10 minutes at room temperature, the plates were washed 3 times with 1% glacial acetic acid and dried at room temperature for about 12-24 hours. SRB staining was dissolved in 10 mM Trizma base and absorbance was read at 515 nm. The effect of the drug was expressed as GI50 (50% growth inhibition), TGI (total growth inhibition) or LC50 (lethal concentration). GI50 is the maximum concentration at the moment of 50% inhibition of cell proliferation and IC50 is the concentration of the drug that inhibits the enzyme activity in vitro by 50% in this study.

[1] = system: A549 non-small cell lung cancer (NSCLC) cell line; assay: SRB analysis 3; conditions: 48 hours
Method: as §1, §2

[2] = system: ACHN renal cancer cell line; assay: SRB analysis 3; conditions: 48 hours
Method: as §1, §2

[3] = system: AGS gastric cancer cell line; assay: SRB analysis 3; conditions: 48 hours
Method: as §1, §2

[4] = system: AsPC-1 pancreatic cancer (PDAC) cell line; assay: SRB analysis 3; conditions: 48 hours
Method: as §1, §2

[5] = system: COLO-205 colon cancer cell line; assay: SRB analysis 3; conditions: 48 hours
Method: as §1, §2

[6] = system: Caki-1 renal cancer cell line; assay: SRB analysis 3; conditions: 48 hours
Method: as §1, §2

[7] = system: DU145 prostate cancer cell line; assay: SRB analysis 3; conditions: 48 hours
Method: as §1, §2

[8] = system: H1975 non-small cell lung cancer (NSCLC) cell line; assay: SRB analysis 3; conditions: 48 hours
Method: as §1, §2

[9] = system: HCT-116 colon cancer cell line; assay: SRB analysis 3; conditions: 48 hours
Method: as §1, §2

[10] = system: Huh-7 liver cancer cell line; assay: SRB analysis 3; conditions: 48 hours
Method: as §1, §2

[11] = system: MCF7 breast cancer cell line; assay: SRB analysis 3; conditions: 48 hours
Method: as §1, §2

[12] = system: MDA-MB-231 breast cancer cell line; assay: SRB analysis 3; conditions: 48 hours
Method: as §1, §2

[13] = system: MIA PaCa-2 pancreatic cancer (PDAC) cell line; assay: SRB analysis 3; conditions: 48 hours
Method: as §1, §2

[14] = system: MKN45 gastric cancer cell line; assay: SRB analysis 3; conditions: 48 hours
Method: as §1, §2

[15] = system: OVCAR-8 ovarian cancer cell line; assay: SRB analysis 3; conditions: 48 hours
Method: as §1, §2

[16] = system: PC-3 prostate cancer cell line; assay: SRB analysis 3; conditions: 48 hours
Method: as §1, §2

[17] = system: SK-OV-3 ovarian cancer cell line; assay: SRB analysis 3; conditions: 48 hours
Method: as §1, §2

[18] = system: SK-hep-1 liver cancer cell line; assay: SRB analysis 3; conditions: 48 hours
Method: as §1, §2

[19] = system: UACC62 melanoma cell line; assay: SRB analysis 3; conditions: 48 hours
Method: as §1, §2

[20] = system: T87G glioblastoma (GBM) cell line; assay: SRB analysis 3; conditions: 48 hours
Method: as §2, with “Through SRB analysis (n=3), the effect of triple combination treatment of a CAC inhibitor ([…] inhibitor (KN713: trimetazidine) and other anticancer drug on cell growth in the cancer cells was analyzed. (see Table 11). The” for “The”, “nm.” for “nm. The effect of the drug was expressed as GI50 (50% growth inhibition), TGI (total growth inhibition) or LC50 (lethal concentration). GI50 is the maximum concentration at the moment of 50% inhibition of cell proliferation and IC50 is the concentration of the drug that inhibits the enzyme activity in vitro by 50% in this study.”

[21] = system: U87MG glioblastoma (GBM) cell line; assay: SRB analysis 3; conditions: 48 hours
Method: as §2, with “Through SRB analysis (n=3), the effect of triple combination treatment of a CAC inhibitor ([…] inhibitor (KN713: trimetazidine) and other anticancer drug on cell growth in the cancer cells was analyzed. (see Table 11). The” for “The”, “nm.” for “nm. The effect of the drug was expressed as GI50 (50% growth inhibition), TGI (total growth inhibition) or LC50 (lethal concentration). GI50 is the maximum concentration at the moment of 50% inhibition of cell proliferation and IC50 is the concentration of the drug that inhibits the enzyme activity in vitro by 50% in this study.”

cancer cells = assay: SRB analysis 3, triple combination, summary over cancer panels
Method: as §1, §2

[22] = Breast Cancer, BT-549, MDA MB 231
[23] = Ovarian Cancer, SK-OV-3, OVCAR-3
[24] = Renal cell carcinoma, ACHN, CAKI-1

## CCc1c2c(nc3ccc(OC(=O)N4CCC(N5CCCCC5)CC4)cc13)-c1cc3c(c(=O)n1C2)COC(=O)[C@]3(O)CC [Irinotecan]
A375 melanoma cell line; Irinotecan 2.5 μM
  cell growth (Control = 100): −23.32
[1]; Irinotecan 2.5 μM
  cell growth (Control = 100): 17.6
[2]; Irinotecan 2.5 μM
  cell growth (Control = 100): −43.8973
[3]; Irinotecan 2.5 μM
  cell growth (Control = 100): 13.58
[4]; Irinotecan 2.5 μM
  cell growth (Control = 100): 45.75
[5]; Irinotecan 2.5 μM
  cell growth (Control = 100): 10.02
[6]; Irinotecan 2.5 μM
  cell growth (Control = 100): 22.65
[7]; Irinotecan 5 μM
  cell growth (Control = 100): 28.6
[8]; Irinotecan 2.5 μM
  cell growth (Control = 100): 25.71
[9]; Irinotecan 2.5 μM
  cell growth (Control = 100): −0.3443
[10]; Irinotecan 2.5 μM
  cell growth (Control = 100): 15.47
[11]; Irinotecan 2.5 μM
  cell growth (Control = 100): 7.427
[12]; Irinotecan 2.5 μM
  cell growth (Control = 100): 78.25
[13]; Irinotecan 2.5 μM
  cell growth (Control = 100): 2.59
[14]; MKN45, Irinotecan 2.5 μM
  cell growth (Control = 100): 40.94
[15]; Irinotecan 2.5 μM
  cell growth (Control = 100): 36.34
[16]; Irinotecan 5 μM
  cell growth (Control = 100): 37.7
[17]; Irinotecan 2.5 μM
  cell growth (Control = 100): 13.57
[18]; Irinotecan 2.5 μM
  cell growth (Control = 100): −15.5188
[19]; Irinotecan 2.5 μM
  cell growth (Control = 100): −13.35
[20]; Irinotecan 2.5 μM
  cell growth (Control = 100): 71.53
[21]; Irinotecan 2.5 μM
  cell growth (Control = 100): 6.31
Cancer cells; [22]
  Positive/Negative (triple combination of KN510, KN713 and the listed anticancer drug): Positive
Cancer cells; Colon Cancer, HT-29, COLO-205
  Positive/Negative (triple combination of KN510, KN713 and the listed anticancer drug): negative
Cancer cells; GBM, U87MG, T87G
  Positive/Negative (triple combination of KN510, KN713 and the listed anticancer drug): Positive
Cancer cells; Liver Cancer, SNU-449, Huh-7
  Positive/Negative (triple combination of KN510, KN713 and the listed anticancer drug): negative
Cancer cells; NSCLC, A549, H522
  Positive/Negative (triple combination of KN510, KN713 and the listed anticancer drug): Positive
Cancer cells; [23]
  Positive/Negative (triple combination of KN510, KN713 and the listed anticancer drug): negative
Cancer cells; PDAC, MIA PaCa-2, PANC-1
  Positive/Negative (triple combination of KN510, KN713 and the listed anticancer drug): Positive
Cancer cells; Prostate Cancer, PC-3, DU-145
  Positive/Negative (triple combination of KN510, KN713 and the listed anticancer drug): Positive
Cancer cells; [24]
  Positive/Negative (triple combination of KN510, KN713 and the listed anticancer drug): negative
Cancer cells; Stomach Cancer, MKN-28, AGS
  Positive/Negative (triple combination of KN510, KN713 and the listed anticancer drug): Positive
Cancer cells; melanoma, UACC62, A375
  Positive/Negative (triple combination of KN510, KN713 and the listed anticancer drug): Positive

## CC(=O)O[C@H]1C(=O)[C@@]2(C)[C@H]([C@H](OC(=O)c3ccccc3)[C@]3(O)C[C@H](OC(=O)[C@H](O)[C@@H](NC(=O)c4ccccc4)c4ccccc4)C(C)=C1C3(C)C)[C@]1(OC(C)=O)CO[C@@H]1C[C@@H]2O [Paclitaxel]
A375 melanoma cell line; Paclitaxel 10 nM
  cell growth (Control = 100): 40.20
[1]; Paclitaxel 10 nM
  cell growth (Control = 100): 17.6
[2]; Paclitaxel 10 nM
  cell growth (Control = 100): 105.2409
[3]; Paclitaxel 20 nM
  cell growth (Control = 100): 20.3903
[4]; Paclitaxel 10 nM
  cell growth (Control = 100): 41.94
[5]; Paclitaxel 10 nM
  cell growth (Control = 100): −8.628
[6]; Paclitaxel 10 nM
  cell growth (Control = 100): 128.124
[7]; Paclitaxel 10 nM
  cell growth (Control = 100): 46.381
[8]; Paclitaxel 10 nM
  cell growth (Control = 100): 45.06
[9]; Paclitaxel 10 nM
  cell growth (Control = 100): 15.07
[10]; Paclitaxel 10 μM
  cell growth (Control = 100): 63.01
[11]; Paclitaxel 10 μM
  cell growth (Control = 100): 17.28
[12]; Paclitaxel 10 μM
  cell growth (Control = 100): 70.48
[13]; Paclitaxel 10 nM
  cell growth (Control = 100): 16.4
[14]; MKN-45, Paclitaxel 20 nM
  cell growth (Control = 100): 8.846
[15]; Paclitaxel 10 μM
  cell growth (Control = 100): 76.61
[16]; Paclitaxel 10 nM
  cell growth (Control = 100): 47.85
[17]; Paclitaxel 10 μM
  cell growth (Control = 100): 62.41
[18]; Paclitaxel 10 μM
  cell growth (Control = 100): 78.76
[19]; Paclitaxel 10 nM
  cell growth (Control = 100): 65.90
[20]; Paclitaxel 10 nM
  cell growth (Control = 100): 56.70
[21]; Paclitaxel 10 nM
  cell growth (Control = 100): 28.87
Cancer cells; [22]
  Positive/Negative (triple combination of KN510, KN713 and the listed anticancer drug): Positive
Cancer cells; Colon Cancer, HT-29, COLO-205
  Positive/Negative (triple combination of KN510, KN713 and the listed anticancer drug): Positive
Cancer cells; GBM, U87MG, T87G
  Positive/Negative (triple combination of KN510, KN713 and the listed anticancer drug): Positive
Cancer cells; Liver Cancer, SNU-449, Huh-7
  Positive/Negative (triple combination of KN510, KN713 and the listed anticancer drug): Positive
Cancer cells; NSCLC, A549, H522
  Positive/Negative (triple combination of KN510, KN713 and the listed anticancer drug): Positive
Cancer cells; [23]
  Positive/Negative (triple combination of KN510, KN713 and the listed anticancer drug): Positive
Cancer cells; PDAC, MIA PaCa-2, PANC-1
  Positive/Negative (triple combination of KN510, KN713 and the listed anticancer drug): Positive
Cancer cells; Prostate Cancer, PC-3, DU-145
  Positive/Negative (triple combination of KN510, KN713 and the listed anticancer drug): Positive
Cancer cells; [24]
  Positive/Negative (triple combination of KN510, KN713 and the listed anticancer drug): negative
Cancer cells; Stomach Cancer, MKN-28, AGS
  Positive/Negative (triple combination of KN510, KN713 and the listed anticancer drug): Positive
Cancer cells; melanoma, UACC62, A375
  Positive/Negative (triple combination of KN510, KN713 and the listed anticancer drug): Positive
